Measurements taken from US6465625B1, “Taxol derivatives” (Albany Molecular Research, Inc., priority 1995, dated 2002).

Tests used:
solubility in water = conditions: for solubility greater than that of taxol: relative to taxol, rounded figures of b160; for increase of water solubility relative to taxol: relative to taxol (<4 μg/ml)
[1] = test system: MOLT-4 cells, a lymphoblastic leukemia cell line; assay: cytotoxicity against MOLT-4 cells (trypan blue exclusion, cell counts after 72 h); assay type: cell-based; conditions: 100 nM to 0.1 nM, 0.5% DMSO
Experimental: (§1) 18. To verify their potential as prodrugs, two taxol esters, taxol 2′-chloroacetate (2) and taxol 2′-acrylate (3), were tested for cytotoxicity against HL-60 cells, a promyelocytic leukemia cell line, and MOLT-4 cells, a lymphoblastic leukemia cell line.^20 Both derivatives had IC50 values about ten times higher than that of taxol for each cell line.
(§2) 20. Cells were seeded in 96-well plates at densities of 30,000 cells/well and grown in RPMI-1640 medium containing 10% bovine calf serum at 37° C. for 24 h. The medium was then replaced with fresh medium containing the taxol esters (excluding taxol, which had been removed by preparative TLC) dissolved in DMSO at final concentrations ranging from 100 nM to 0.1 nM. The final concentration of DMSO in the cell medium was 0.5%. After 72 h, samples were removed for cell counts. Total cell number and viability were determined by trypan blue exclusion and manual cell counting on a hemacytometer.

[2] = test system: HL-60 cells, a promyelocytic leukemia cell line; assay: cytotoxicity against HL-60 cells (trypan blue exclusion, cell counts after 72 h); assay type: cell-based; conditions: 100 nM to 0.1 nM, 0.5% DMSO
Experimental: as §1, §2

SMILES | solubility (solubility in water; water) | solubility greater than that of taxol (solubility in water) | increase of water solubility relative to taxol (solubility in water; water) | IC50 relative to that of taxol [1] | IC50 relative to that of taxol [2]
CC(=O)O[C@H]1C(=O)[C@@]2(C)[C@H]([C@H](OC(=O)c3ccccc3)[C@]3(O)C[C@H](OC(=O)[C@H](O)[C@@H](NC(=O)c4ccccc4)c4ccccc4)C(C)=C1C3(C)C)[C@]1(OC(C)=O)CO[C@@H]1C[C@@H]2O [taxol] | < 4 µg/mL | – | – | – | –
CC(=O)O[C@H]1C(=O)[C@@]2(C)C([C@H](OC(=O)c3ccccc3)[C@]3(O)C[C@H](OC(=O)[C@H](OC(=O)CCCCC(=O)O)[C@@H](NC(=O)c4ccccc4)c4ccccc4)C(C)=C1C3(C)C)[C@]1(OC(C)=O)CO[C@@H]1C[C@@H]2O (stereo partly drawn) [taxol 2′-adipic acid, Taxol 2′-adipic acid] | – | 1,700 times | 1625 fold | – | –
C=CC(=O)OC(C(=O)OC1CC2(O)C(OC(=O)c3ccccc3)C3C4(OC(C)=O)COC4CC(O)C3(C)C(=O)C(OC(C)=O)C(=C1C)C2(C)C)C(NC(=O)c1ccccc1)c1ccccc1 (stereo not drawn) [compound 3, Taxol 2′-acrylate] | – | – | – | about ten | about ten
CC(=O)OC1C(=O)C2(C)C(O)CC3OCC3(OC(C)=O)C2C(OC(=O)c2ccccc2)C2(O)CC(OC(=O)C(OC(=O)CCl)C(NC(=O)c3ccccc3)c3ccccc3)C(C)=C1C2(C)C (stereo not drawn) [compound 2, taxol 2′-chloroacetate] | – | – | – | about ten | about ten
CC(=O)O[C@H]1C(=O)[C@@]2(C)C([C@H](OC(=O)c3ccccc3)[C@]3(O)C[C@H](OC(=O)[C@H](OC(=O)CCCCC(=O)OCC4OC(O)C(O)C(O)C4O)[C@@H](NC(=O)c4ccccc4)c4ccccc4)C(C)=C1C3(C)C)[C@]1(OC(C)=O)CO[C@@H]1C[C@@H]2O (stereo partly drawn) [taxol 2′-(adipoyl)glucose, Taxol 2′-(adipoyl) glucose] | – | 60 times | 58 fold | – | –
